Test results reported in US11752122B2 (OKLAHOMA MEDICAL RESEARCH FOUNDATION, priority 2018, dated 2023).
“Also recorded” adds a separate entry of the source. Read-outs that look alike come from different tables or passages of the source.

Columns and labels:
[1] = test system: mouse model; details: large doses, mouse model; cited from earlier work
[2] = test system: ascending aortic constriction (AAC) model; assay: Cardiac fibrosis in ascending aortic constriction (AAC) model; format: in vivo, mice; details: high shear pressure overload AAC model, NAC treatment (data not shown)
Description: Ascending Aortic Constriction. Ascending aortic constriction was induced by controlled constriction of the ascending aorta as described previously 26. Briefly, mice were anesthetized with 1.5% isoflurane and the ascending aorta was surgically exposed by a mid-thorax incision. A 2 7-0 suture was placed around both the aorta and an adjacent 27-gauge (0.41 mm OD) needle proximal to the origin of the innominate artery. […] Mice were sacrificed and tissues collected 1 month after the surgery.

[3] = test system: LDLR mice on HFD; details: for WSS (wall shear stress) / fractional valve opening: LDLR mice on HFD, vs untreated control mice
Description: Mice. Hypercholesterolemic mice deficient for low-density lipoprotein receptors (Ldlr−/−), which only express ApoB-100 (Ldlr−/−Apob100/100, LDLR), were obtained from Jackson Laboratories (B6; 129SLdlrtm1HerApobtm2Sgy/J, stock no. 003000). WT C57bl/6 mice were also obtained from the Jackson Laboratory (stock no. 000664) and served as controls. TGF-β1^platelet-KO-LDLR mice (Pf4Cre+Tgfb1f/f;Ldlr−/−Apob100/100;) and TGF-β1^flox-LDLR littermate controls (Tgfb1f/f;Ldlr−/−Apob100/100) were generated by crossing LDLR mice with Pf4Cre+;Tgfb1f/f mice, as shown in FIGS. 7A-B and Supplemental Table 5. […] The inventor crossed Tie2Cre mice (stock no. 008863, Jackson Laboratories) with tdTomato lox-stop-lox mice (stock no. 007909, Jackson Laboratories) to generate Tie2Cre;tdTomato mice that express tdTomato only under Cre activity. All mice were housed in a controlled environment (23±2° C.; 12 hours light/dark cycles) and fed either a chow diet (CD) (PicoLab® Rodent Diet 20, 5053) or a customized high fat diet (HFD) (Harlan Teklad, TD.9612102. containing 21% milk fat (MF), 1.25% Cholesterol) in powdered form in a glass jar with perforated metal strainer (DYETS, Braintree Scientific Inc.). The Oklahoma Medical Research Foundation's Institutional Animal Care and Usage Committee approved all procedures.
Experimental Design. A total of 118 LDLR (58 Males, 60 Females) and 20 WT mice (10 Males, 10 Females) were used for this study. Half of the mice (6 weeks old) were switched to HFD and maintained for up to 9 months. Progression and severity (mild/moderate/severe) of AS were monitored at 0, 3, 6 and 9 months by echocardiography using non-invasive ultrasound imaging techniques. Five mice per cage (total of 25 males, 15 females) were treated with 2% N-acetylcysteine (NAC) (Acros Organics, 160280010) in drinking water. NAC was prepared in reverse osmosis water and its pH was adjusted to 7.4 with NaOH. Water was replaced with a fresh solution every week.
Echocardiography. Mice were anesthetized with Isoflurane (3-5% inhalation) in an induction chamber. Mice that appeared to be sick due to severe stenosis or that were underweight were anesthetized using a lower isoflurane level to prevent adverse or lethal effects from the anesthetic. Once visibly anesthetized, isoflurane was reduced to 0.5%-2% and the mouse was moved from the chamber to a nose-cone on a heated platform set at 40° C. to maintain body temperature (35±2° C.). Heavier mice were maintained at higher isoflurane levels as they appeared less sensitive to its anesthetic effects. All four limbs were taped to physiological electrodes and a rectal temperature probe was inserted. Electrode gel was used to enhance the physiologic readings. To ensure accuracy of all echo measurements, physiological parameters were monitored and recordings were only taken if the heart rate was 430-550 beats per minute, respiration was 20-100 breaths per minute, and body temperature was close to 37° C. (35±2° C.).
Measurement of AS parameters using a modified view of ultrasound imaging. Echocardiography is the gold standard non-invasive method to measure AS in humans. However, the mouse heart rate is 10-times faster (500 to 600 beats per minute), making the acquisition of high-resolution images of the very thin non-diseased valves challenging. […] LVOT was measured from the long-axis view and was used to calculate AV pressure and normalize the cusp separation (Lindman et al., 2016; Meyer et al., 2012). This view was obtained by tilting the lower left corner of the platform downward by about 30° and angling the transducer up such that it interfaced with the chest cavity by about 45°.

[4] = cited from earlier work
[5] = Activity and stability of NAC dissolved in water; format: physicochemical; details: up to 15 days; tested by effect on blocking shear-dependent TGF-β1 activation
Description: Experimental Design. […] Water was replaced with a fresh solution every week.

[6] = IV formulations; cited from earlier work
[7] = molecular target: T1, latent TGF-β1 released from platelets (Homo sapiens, UniProt P01137); details: in vitro; cited from earlier work
T1 construct: host or cells: platelet releasate

[8] = LDLR HFD + NAC (2-5 Months), total n=8
[9] = LDLR HFD + NAC (3-5 Months), total n=11
[10] = LDLR HFD + NAC (5-6 Months), total n=7

T1 sequence (P01137 30-278 limits assumed): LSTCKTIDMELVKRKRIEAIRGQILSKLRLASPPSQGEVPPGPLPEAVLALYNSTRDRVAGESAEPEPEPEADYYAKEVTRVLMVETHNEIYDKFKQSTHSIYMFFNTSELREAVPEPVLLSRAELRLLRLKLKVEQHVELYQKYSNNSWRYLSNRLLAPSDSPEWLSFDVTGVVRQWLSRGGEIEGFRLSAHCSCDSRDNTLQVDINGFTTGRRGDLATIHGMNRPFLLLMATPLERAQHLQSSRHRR
T1 sequence (P01137 279-390 limits assumed): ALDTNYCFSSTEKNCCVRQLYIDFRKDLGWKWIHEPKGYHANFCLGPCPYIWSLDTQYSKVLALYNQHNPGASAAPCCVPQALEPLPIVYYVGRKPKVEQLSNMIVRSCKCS
T1 sequence (Q14766 24-1721 partner): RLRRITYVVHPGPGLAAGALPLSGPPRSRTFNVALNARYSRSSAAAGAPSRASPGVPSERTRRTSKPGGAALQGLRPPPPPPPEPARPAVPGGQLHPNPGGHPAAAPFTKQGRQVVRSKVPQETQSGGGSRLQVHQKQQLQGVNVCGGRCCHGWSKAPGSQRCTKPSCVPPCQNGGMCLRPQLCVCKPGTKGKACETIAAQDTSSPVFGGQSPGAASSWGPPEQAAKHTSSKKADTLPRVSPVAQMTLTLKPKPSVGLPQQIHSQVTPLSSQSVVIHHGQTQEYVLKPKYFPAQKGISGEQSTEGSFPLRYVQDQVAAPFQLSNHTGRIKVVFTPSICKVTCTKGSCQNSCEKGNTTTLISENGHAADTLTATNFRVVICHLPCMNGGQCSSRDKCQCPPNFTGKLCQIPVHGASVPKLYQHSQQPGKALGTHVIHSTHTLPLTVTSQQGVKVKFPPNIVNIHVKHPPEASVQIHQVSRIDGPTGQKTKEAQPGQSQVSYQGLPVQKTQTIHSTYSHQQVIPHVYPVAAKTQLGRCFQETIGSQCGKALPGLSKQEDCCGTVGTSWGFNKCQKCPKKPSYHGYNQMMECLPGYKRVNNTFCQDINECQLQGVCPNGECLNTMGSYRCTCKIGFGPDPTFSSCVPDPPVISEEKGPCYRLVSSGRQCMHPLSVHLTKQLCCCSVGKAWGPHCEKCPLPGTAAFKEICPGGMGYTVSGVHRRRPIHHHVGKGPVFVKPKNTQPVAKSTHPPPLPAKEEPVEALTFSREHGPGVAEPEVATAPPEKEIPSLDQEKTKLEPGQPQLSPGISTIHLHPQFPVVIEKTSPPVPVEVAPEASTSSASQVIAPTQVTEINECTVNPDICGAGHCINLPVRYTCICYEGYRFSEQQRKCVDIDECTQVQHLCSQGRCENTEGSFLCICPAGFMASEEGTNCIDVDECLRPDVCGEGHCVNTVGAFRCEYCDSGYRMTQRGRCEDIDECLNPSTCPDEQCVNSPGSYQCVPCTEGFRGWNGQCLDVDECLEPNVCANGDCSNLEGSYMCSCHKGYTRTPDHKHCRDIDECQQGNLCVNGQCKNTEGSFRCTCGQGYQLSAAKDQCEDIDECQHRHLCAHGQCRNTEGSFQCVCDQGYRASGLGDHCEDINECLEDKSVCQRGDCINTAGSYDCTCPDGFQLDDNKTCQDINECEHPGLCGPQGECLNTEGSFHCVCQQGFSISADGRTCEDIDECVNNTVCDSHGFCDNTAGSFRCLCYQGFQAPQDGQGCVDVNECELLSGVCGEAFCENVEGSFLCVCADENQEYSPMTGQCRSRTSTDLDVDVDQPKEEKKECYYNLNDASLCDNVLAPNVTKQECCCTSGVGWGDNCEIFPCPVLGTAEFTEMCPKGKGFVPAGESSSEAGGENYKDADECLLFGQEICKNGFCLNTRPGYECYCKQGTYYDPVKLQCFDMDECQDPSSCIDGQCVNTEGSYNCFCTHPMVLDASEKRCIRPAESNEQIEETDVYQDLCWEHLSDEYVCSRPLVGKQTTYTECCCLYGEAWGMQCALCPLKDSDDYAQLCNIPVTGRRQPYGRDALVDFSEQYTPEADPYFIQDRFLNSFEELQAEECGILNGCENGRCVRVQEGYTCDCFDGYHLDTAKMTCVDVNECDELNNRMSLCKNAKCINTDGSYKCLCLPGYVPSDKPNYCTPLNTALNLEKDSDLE

SMILES: CC(=O)N[C@@H](CS)C(=O)O [NAC, N-acetylcysteine]
- damage to the heart and lungs [1]: could potentially cause damage to the heart and lungs
- cardiac fibrosis [2]: inhibits cardiac fibrosis
- Penetrance, fractional valve opening: Mild Stenosis 0.75-0.85, number of mice [3, 8]: 1
- Penetrance, fractional valve opening: Mild Stenosis 0.75-0.85, percent of mice [3, 8]: (12%)
- Penetrance, fractional valve opening: Moderate Stenosis 0.6-0.75, number of mice [3, 8]: 2
- Penetrance, fractional valve opening: Moderate Stenosis 0.6-0.75, percent of mice [3, 8]: (25%)
- Penetrance, fractional valve opening: No Stenosis >0.85, number of mice [3, 8]: 0
- Penetrance, fractional valve opening: No Stenosis >0.85, percent of mice [3, 8]: (0%)
- Penetrance, fractional valve opening: Severe Stenosis <0.6, number of mice [3, 8]: 5
- Penetrance, wall shear stress: Mild Stenosis 350-525 dyn/cm^2, number of mice [3, 8]: 0
- Penetrance, wall shear stress: Mild Stenosis 350-525 dyn/cm^2, percent of mice [3, 8]: (0%)
- Penetrance, wall shear stress: Moderate Stenosis 525-700 dyn/cm^2, number of mice [3, 8]: 3
- Penetrance, wall shear stress: Moderate Stenosis 525-700 dyn/cm^2, percent of mice [3, 8]: (37%)
- Penetrance, wall shear stress: No Stenosis <350 dyn/cm^2, number of mice [3, 8]: 0
- Penetrance, wall shear stress: No Stenosis <350 dyn/cm^2, percent of mice [3, 8]: (0%)
- Penetrance, wall shear stress: Severe Stenosis >700 dyn/cm^2, number of mice [3, 8]: 6
- Penetrance, wall shear stress: Severe Stenosis >700 dyn/cm^2, percent of mice [3, 8]: (63%)
- Penetrance, fractional valve opening: Mild Stenosis 0.75-0.85, number of mice [3, 9]: 2
- Penetrance, fractional valve opening: Mild Stenosis 0.75-0.85, percent of mice [3, 9]: (16%)
- Penetrance, fractional valve opening: Moderate Stenosis 0.6-0.75, number of mice [3, 9]: 7
- Penetrance, fractional valve opening: Moderate Stenosis 0.6-0.75, percent of mice [3, 9]: (64%)
- Penetrance, fractional valve opening: No Stenosis >0.85, number of mice [3, 9]: 0
- Penetrance, fractional valve opening: No Stenosis >0.85, percent of mice [3, 9]: (0%)
- Penetrance, fractional valve opening: Severe Stenosis <0.6, number of mice [3, 9]: 2
- Penetrance, fractional valve opening: Severe Stenosis <0.6, percent of mice [3, 9]: (18%)
- Penetrance, wall shear stress: Mild Stenosis 350-525 dyn/cm^2, number of mice [3, 9]: 4
- Penetrance, wall shear stress: Mild Stenosis 350-525 dyn/cm^2, percent of mice [3, 9]: (36%)
- Penetrance, wall shear stress: Moderate Stenosis 525-700 dyn/cm^2, number of mice [3, 9]: 5
- Penetrance, wall shear stress: Moderate Stenosis 525-700 dyn/cm^2, percent of mice [3, 9]: (46%)
- Penetrance, wall shear stress: No Stenosis <350 dyn/cm^2, number of mice [3, 9]: 0
- Penetrance, wall shear stress: No Stenosis <350 dyn/cm^2, percent of mice [3, 9]: (0%)
- Penetrance, wall shear stress: Severe Stenosis >700 dyn/cm^2, number of mice [3, 9]: 2
- Penetrance, wall shear stress: Severe Stenosis >700 dyn/cm^2, percent of mice [3, 9]: (18%)
- Penetrance, fractional valve opening: Mild Stenosis 0.75-0.85, number of mice [3, 10]: 3
- Penetrance, fractional valve opening: Mild Stenosis 0.75-0.85, percent of mice [3, 10]: (43%)
- Penetrance, fractional valve opening: Moderate Stenosis 0.6-0.75, number of mice [3, 10]: 4
- Penetrance, fractional valve opening: Moderate Stenosis 0.6-0.75, percent of mice [3, 10]: (57%)
- Penetrance, fractional valve opening: No Stenosis >0.85, number of mice [3, 10]: 0
- Penetrance, fractional valve opening: No Stenosis >0.85, percent of mice [3, 10]: (0%)
- Penetrance, fractional valve opening: Severe Stenosis <0.6, number of mice [3, 10]: 0
- Penetrance, fractional valve opening: Severe Stenosis <0.6, percent of mice [3, 10]: (0%)
- Penetrance, wall shear stress: Mild Stenosis 350-525 dyn/cm^2, number of mice [3, 10]: 3
- Penetrance, wall shear stress: Mild Stenosis 350-525 dyn/cm^2, percent of mice [3, 10]: (43%)
- Penetrance, wall shear stress: Moderate Stenosis 525-700 dyn/cm^2, number of mice [3, 10]: 4
- Penetrance, wall shear stress: Moderate Stenosis 525-700 dyn/cm^2, percent of mice [3, 10]: (57%)
- Penetrance, wall shear stress: No Stenosis <350 dyn/cm^2, number of mice [3, 10]: 0
- Penetrance, wall shear stress: No Stenosis <350 dyn/cm^2, percent of mice [3, 10]: (0%)
- Penetrance, wall shear stress: Severe Stenosis >700 dyn/cm^2, number of mice [3, 10]: 0
- Penetrance, wall shear stress: Severe Stenosis >700 dyn/cm^2, percent of mice [3, 10]: (0%)
- WSS (wall shear stress) ([3]; NAC months 3-5 (moderate AS)): improved
- fractional valve opening ([3]; NAC months 3-5 (moderate AS)): improved
- WSS (wall shear stress) ([3]; NAC months 5-6 (severe AS)): improved
- fractional valve opening ([3]; NAC months 5-6 (severe AS)): improved
- effect on AS ([3]; long-term NAC treatment (1-6 months) (data not shown)): very little to no effect
- atherosclerotic plaque (adverse effect) ([3]; mouse, in vivo): increased atherosclerotic plaque
- heart function (adverse effect) ([3]; mouse, in vivo): deterioration of heart function
- mild to moderate AS progression ([3]; short-term NAC treatment from 2-3 months (data not shown)): halted
- liver damage ([4]; taken 4 hours after alcohol, dose-dependent): made liver damage worse
- liver damage ([4]; taken before alcohol): prevented liver damage
- activity and stability after dissolving in water [5]: validated
- patients experiencing anaphylaxis reaction [6]: Up to 18%
- shear-dependent activation of latent TGF-β1 released from platelets [7]: inhibited; also recorded: partially inhibits; also recorded: blocks
